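Following 48 hours of exposure in 96-well plates, responses at five concentrations were used to interpolate endpoints linearly. GI50 marks 50% less growth. TGI: concentration producing complete growth inhibition.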
Columns and labels:
Assay in all cases: NCI tumour cell line growth inhibition, 48 h
[1] = test system: HOP-62 NSCLC
[2] = test system: T-47D breast
[3] = test system: SK-MEL-2 melanoma
[4] = test system: NCI-H522 lung
[5] = test system: OVCAR-5 ovarian
[6] = test system: OVCAR-3 ovarian
[7] = test system: 786-0 renal
[8] = test system: SF-268 CNS
[9] = test system: MALME-3M melanoma
[10] = test system: HOP-92 NSCLC
[11] = test system: UACC-257 melanoma
[12] = test system: ACHN renal
[13] = test system: SN12C renal
[14] = test system: U251 CNS
[15] = test system: UO-31 renal
[16] = test system: LOX IMVI melanoma
[17] = test system: M14 melanoma
[18] = test system: HCT-116 colon
[19] = test system: A498 renal
[20] = test system: OVCAR-4 ovarian
[21] = test system: BT-549 breast
[22] = test system: SK-MEL-5 melanoma
[23] = test system: SR leukemia
[24] = test system: EKVX NSCLC
[25] = test system: MDA-MB-435
[26] = test system: CAKI-1 renal
[27] = test system: DU-145 prostate
[28] = test system: SF-295 CNS
[29] = test system: UACC-62 melanoma
[30] = test system: SK-OV-3 ovarian
[31] = test system: HCC-2998 colon
[32] = test system: HCT-15 colon
[33] = test system: MDA-MB-231 breast
[34] = test system: HL-60(TB) leukemia
[35] = test system: SK-MEL-28 melanoma
[36] = test system: SNB-75 CNS
[37] = test system: RXF 393 renal
[38] = test system: SF-539 CNS
[39] = test system: K-562 leukemia
[40] = test system: TK-10 renal
[41] = test system: IGROV1 ovarian
[42] = test system: PC-3 prostate
[43] = test system: SNB-19 CNS

Work on Cc1nnc([S-])o1.[Au+].c1ccc([PH+](c2ccccc2)c2ccccc2)cc1 yielded a GI50 [1] of 1.87 µM, a TGI [1] of 3.53 µM and a GI50 [2] of 1.87 µM. The TGI [2] was 4.93 µM, the GI50 [3] was 1.72 µM and the TGI [3] was 3.24 µM. It also gave a GI50 [4] of 0.595 µM, a TGI [4] of 2.03 µM and a GI50 [5] of 1.82 µM. For the same compound, the TGI [5] was 3.27 µM, the GI50 [6] was 1.61 µM and the TGI [6] was 2.98 µM. It also gave a GI50 [7] of 1.64 µM, a TGI [7] of 3 µM and a GI50 [8] of 1.62 µM. The TGI [8] was 3.31 µM, the GI50 [9] was 1.6 µM and the TGI [9] was 3.06 µM. It also gave a GI50 [10] of 1.64 µM, a TGI [10] of 3.03 µM and a GI50 [11] of 1.57 µM. It also gave a TGI [11] of 3.11 µM, a GI50 [12] of 1.71 µM and a TGI [12] of 3.08 µM. For the same compound, the GI50 [13] was 1.67 µM, the TGI [13] was 3.07 µM and the GI50 [14] was 1.5 µM. It also gave a TGI [14] of 2.86 µM, a GI50 [15] of 1.66 µM and a TGI [15] of 3.02 µM. It also gave a GI50 [16] of 1.63 µM, a TGI [16] of 3 µM and a GI50 [17] of 1.79 µM. It also gave a TGI [17] of 3.34 µM, a GI50 [18] of 1.6 µM and a TGI [18] of 3.01 µM. The GI50 [19] was 1.57 µM, the TGI [19] was 2.93 µM and the GI50 [20] was 1.59 µM. It also gave a TGI [20] of 2.95 µM, a GI50 [21] of 1.58 µM and a TGI [21] of 2.95 µM. For the same compound, the GI50 [22] was 1.55 µM, the TGI [22] was 2.94 µM and the GI50 [23] was 1.21 µM. For the same compound, the TGI [23] was over 100 µM, the GI50 [24] was 1.81 µM and the TGI [24] was 3.24 µM. It also gave a GI50 [25] of 1.62 µM, a TGI [25] of 3.02 µM and a GI50 [26] of 1.47 µM. The TGI [26] was 2.8 µM, the GI50 [27] was 1.75 µM and the TGI [27] was 3.26 µM. For the same compound, the GI50 [28] was 1.89 µM, the TGI [28] was 3.5 µM and the GI50 [29] was 1.35 µM. For the same compound, the TGI [29] was 2.7 µM, the GI50 [30] was 2.28 µM and the TGI [30] was 4.17 µM. The GI50 [31] was 1.82 µM, the TGI [31] was 3.27 µM and the GI50 [32] was 1.49 µM. For the same compound, the TGI [32] was 3.08 µM, the GI50 [33] was 1.68 µM and the TGI [33] was 3.11 µM. The GI50 [34] was 2.99 µM, the TGI [34] was 9.12 µM and the GI50 [35] was 1.51 µM. It also gave a TGI [35] of 2.86 µM, a GI50 [36] of 1.32 µM and a TGI [36] of 2.6 µM. It also gave a GI50 [37] of 1.24 µM, a TGI [37] of 2.51 µM and a GI50 [38] of 1.63 µM. For the same compound, the TGI [38] was 2.99 µM, the GI50 [39] was 2.38 µM and the TGI [39] was over 100 µM. The GI50 [40] was 1.8 µM, the TGI [40] was 3.21 µM and the GI50 [41] was 1.47 µM. It also gave a TGI [41] of 2.82 µM, a GI50 [42] of 1.59 µM and a TGI [42] of 3.07 µM. It also gave a GI50 [43] of 1.61 µM and a TGI [43] of 2.98 µM.

— PubChem BioAssay (NCI)
